Results as given in patent US8968784B2, “Method for preparing hydro/organo gelators from disaccharide sugars by biocatalysis and their use in enzyme-triggered drug delivery” (Research Foundation of the City University of New York, priority 2006, dated 2015).
≈ marks a conversion by molar mass, not a printed value.

Legend:
[1] = Solubilization (encapsulation) of curcumin in hydrogel; assay type: physicochemical; conditions: 0.5 wt % hydrogel of derivative 3, aqueous with cosolvent or surfactant or cyclodextrin
Description: (§1) The release of curcumin into the solution in the presence of enzyme was monitored by measuring the curcumin UV-absorption spectrum. The absorption spectrum recorded in aqueous gel solution was compared with the curcumin spectra recorded in methanol. […] To test this hypothesis, water was added to the preformed gel and left for 12 hrs. The UV-absorption of the supernatant was recorded. […] XXVII. Cyclodextrin complexation: solubility, chemical and photochemical stability. Int. J. Pharm. 244, 127-135 (2002).

[2] = biological target: T1, hydrolase enzyme (Lipolase 100L, Type EX) (Thermomyces lanuginosus, UniProt O59952); experiment: Enzyme-triggered gel degradation and curcumin release from hydrogel, monitored by UV absorption; conditions: for curcumin release: room temperature
T1 construct: purchased Lipolase 100L, Type EX
T1 sequence (O59952 23-291): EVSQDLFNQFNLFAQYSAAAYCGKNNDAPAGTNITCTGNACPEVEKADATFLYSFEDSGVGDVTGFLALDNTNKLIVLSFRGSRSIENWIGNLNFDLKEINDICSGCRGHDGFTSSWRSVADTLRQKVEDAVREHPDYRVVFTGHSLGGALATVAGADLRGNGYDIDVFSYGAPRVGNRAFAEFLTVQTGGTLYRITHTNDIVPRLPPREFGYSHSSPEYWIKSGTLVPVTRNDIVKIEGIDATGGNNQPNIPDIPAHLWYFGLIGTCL
Description: Solubilization of hydrophobic drugs and developing suitable drug delivery systems is a challenging task in drug discovery research.^18 A conceptual approach of single-step enzyme-triggered drug delivery at physiological conditions was performed where a hydrophobic drug molecule was encapsulated—solubilized without chemical modification—in a hydrogel and subsequent release of the drug by breaking the gel by using hydrolase enzyme (Lipolase 100L, Type EX). […] Drug release was monitored by absorbance spectra of the drug. Control of the drug release rate was achieved by manipulating the enzyme concentration and/or temperature. The by-products formed after the gel degradation were characterized and the cleavage site of the gelator by enzyme was determined. Gel degradation occurred due to the cleavage of the ester bond in the gelator by the hydrolase enzyme. ^18Miyata, T., Uragami, T. & Nakamae, K. Biomolecule-sensitive hydrogel. Adv. Drug Delivery Rev. 54, 79-98 (2002).
as §1
First, 0.5 mL of lipase—Lipolase 100L, Type EX, lipase units 100 KLU/g—was added to the preformed gel and kept at 37° C.—far lower than gel melting temperature. […] This was confirmed by spectroscopic experiments. Aliquots were collected after addition of an enzyme to the hydrogel after 10 min and 12 hrs and absorbance spectrum were recorded.
To find out the role of the enzyme on hydrogel degradation, similar experiments were carried out by adding only water without an enzyme. As expected, the curcumin-encapsulated gel was still intact after incubating for a few days at 37° C. There was no visual change in the gel volume and in the added solution. […] To this, 0.5 mL of lipolase was added and incubated at 37° C.
To obtain control on the rate of release, the role of enzyme concentration and temperature on gel degradation or controlled drug release was investigated. In a first set of experiments, the temperature was changed while keeping enzyme concentration constant. After addition of the enzyme to the preformed gel, the vial was kept at room temperature for two days, and as explained previously, curcumin release was monitored by absorption spectra.
In a second set of experiments, the enzyme concentration was changed while keeping the temperature constant. […] At room temperature, even after several days, there was no release. Then the vial was placed at 37° C. in incubation and took 300 min to start the drug release, which eventually took 4,320 min to release completely. In addition to this, a similar low enzyme concentrated vial was directly incubated at 45° C.
It is important to characterize the products/compounds formed after gel degradation. […] Upon gel degradation, a white fluffy solid was produced, which is not soluble in water, and thus settled down in the vial. The solid was isolated and characterized by ^1H-NMR, and it matched with the NMR of pure stearic acid. See FIG. 12, which is a comparison of the ^1H-NMR spectra of commercially available stearic acid and the white fluffy solid obtained after gel degradation, which was filtered, freeze-dried, and NMR recorded in Chloroform.

[3] = Gelation ability in water and organic solvents (inverted tube, visual); assay type: physicochemical; conditions: for gel formation: highly polar solvents like water, methanol, and non-polar solvents like nonane, benzene, toluene
Description: Typically, a gelator (0.01-2 mg) in a required solvent (0.1-1 mL) was heated until the solid was completely dissolved. The resulting solution was slowly allowed to cool to room temperature and gelation was visually observed. […] All gels obtained were thermally reversible. Above their gelation temperature, the gels dissolved in water but could be returned to their original gel state upon cooling.
Typically, the gelator (0.01-2 mg) and required solvent (0.1-1 mL) were placed into a 2 mL scintillation vial, which was then sealed with a screw cap. The vial was heated and shook until the solid was completely dissolved. The solution was set aside and allowed to cool to room temperature. Gelation was considered to have occurred when no gravitational flow in the inverted tube was observed.

Row | Molecule | solubility [1] [µM] | time to complete curcumin release ([2]; lipase 100 KLU/g, 37° C.) [min] | time to start of curcumin release ([2]; lipase 100 KLU/g, 37° C.) [min] | time to complete curcumin release ([2]; lipase 100 KLU/g, 45° C.) [min] | time to start of curcumin release ([2]; lipase 100 KLU/g, 45° C.) [min] | curcumin release ([2]; lipase 100 KLU/g, two days) | time to complete curcumin release ([2]; lipolase 10 KLU/g, 37° C.) | time to start of curcumin release ([2]; lipolase 10 KLU/g, 37° C.) [min] | time to complete curcumin release ([2]; lipolase 10 KLU/g, 45° C.) | time to start of curcumin release ([2]; lipolase 10 KLU/g, 45° C.) [min] | curcumin release ([2]; lipolase 10 KLU/g, several days) | curcumin in supernatant (UV absorption) ([2]; water added to preformed gel of derivative 3, left 12 hrs, no enzyme) | gel formation [3] | Minimum gelation concentration (MGC) ([3]; in benzene) [wt %] | Minimum gelation concentration (MGC) ([3]; in water) [wt %] | number of solvents gelled ([3]; ten solvents tested (water, polar and nonpolar organic solvents)) | gel degradation ([2]; hydrogel of derivative 3 without curcumin, 0.5 mL lipolase, 37° C., after 12 hrs) | site of gelator cleavage by enzyme (TLC, 1H-NMR of products) ([2]; products after gel degradation: amygdalin, stearic acid)
1 | COc1cc(/C=C/C(=O)CC(=O)/C=C/c2ccc(O)c(OC)c2)ccc1O [curcumin] | 1000 (≈ 368 µg/mL) | ≤ 720 | 120 | 270 | ≤ 30 | no release | 4,320 min | 300 | 2,880 min | 180 | no release | Absence of any absorbance peak | – | – | – | – | – | –
2 | Amygdalin Octadecanoate [derivative 3] | – | – | – | – | – | – | – | – | – | – | – | – | formed gels | 0.2 | 0.05 | all ten solvents | degraded completely | cleaving the ester bond
3 | Amygdalin Tetradecanoate [derivative 2] | – | – | – | – | – | – | – | – | – | – | – | – | formed gels | – | – | – | – | –
